Data reported in US20250134938A1 (priority 2023, published 2025).
Values after ≈ are worked out from the molar mass of the structure shown. Where two headings read alike, the source gives them in different places.

Key:
L. lactis CAB701 strain = experiment: Antibiotic resistance by E-test (MIC); assay type: cell-based, Lactococcus lactis subsp. lactis
Protocol: The value at the end of the strip pointed by the inhibitory ring was determined as the minimum inhibitory concentration (MIC).

[1] = biological target: T1, porcine pancreatic lipase type II (Sus scrofa, UniProt P00591); experiment: Inhibition of pancreatic lipase; assay type: biochemical; conditions: 1000 μg/mL; read-out: Pancreatic lipase inhibition rate (%)
T1 construct: purchased Sigma
T1 sequence (P00591 1-450): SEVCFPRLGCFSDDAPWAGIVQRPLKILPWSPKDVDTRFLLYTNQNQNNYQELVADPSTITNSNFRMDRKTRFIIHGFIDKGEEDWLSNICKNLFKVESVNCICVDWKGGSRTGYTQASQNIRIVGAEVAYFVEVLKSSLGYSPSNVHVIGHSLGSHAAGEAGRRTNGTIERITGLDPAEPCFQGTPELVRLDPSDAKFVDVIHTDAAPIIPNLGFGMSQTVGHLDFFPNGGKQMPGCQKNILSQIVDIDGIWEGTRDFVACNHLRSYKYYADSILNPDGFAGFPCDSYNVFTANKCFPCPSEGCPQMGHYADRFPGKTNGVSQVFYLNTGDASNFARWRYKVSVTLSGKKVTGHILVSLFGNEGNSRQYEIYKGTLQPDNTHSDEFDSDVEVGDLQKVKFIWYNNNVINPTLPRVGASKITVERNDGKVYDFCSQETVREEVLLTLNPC
Protocol: 50 mg of porcine pancreatic lipase type II (Sigma) was suspended in 10 mL of 10 mM Tris-HCl buffer adjusted to pH 8.0, vortexed for 15 minutes, and centrifuged at 4000 rpm for 10 minutes at 18° C. The supernatant was used as an enzyme solution. As a substrate, p-nitrophenyl butyrate (Sigma-Aldrich (Schnelldorf, Germany)) dissolved in acetonitrile to 10 mM was used. […] Tertiary distilled water was used as a negative control group. […] After adding 10 μL of a substrate solution, followed by reaction for 5 minutes at 37° C., absorbance was measured using a microplate reader at 405 nm, which is the maximum absorbance of p-nitrophenol. Pancreatic lipase inhibition rate (%)=[(negative control absorbance-sample absorbance)/negative control absorbance]×100

[2] = Lactococcus lactis, CAB701STRAIN, E-test, MRS agar, 37° C., 72 hours, read-out: MIC

Compound	Evaluation (L. lactis CAB701 strain)	MIC (L. lactis CAB701 strain; [2])	Evaluation (L. lactis CAB701 strain; MIC against EFSA cut-off value)	further results
NC[C@H]1O[C@H](O[C@H]2[C@H](O)[C@@H](O[C@H]3O[C@H](CO)[C@@H](O)[C@H](N)[C@H]3O)[C@H](N)C[C@@H]2N)[C@H](O)[C@@H](O)[C@@H]1O [Kanamycin]	Allowed	8 µg/mL (≈ 16.5 µM)	–	–
CCC[C@@H]1C[C@@H](C(=O)N[C@@H]([C@H]2O[C@H](SC)[C@H](O)[C@@H](O)[C@H]2O)[C@H](C)Cl)N(C)C1 [Clindamycin]	Allowed	0.25 µg/mL (≈ 0.588 µM)	–	–
CN[C@H](CC(C)C)C(=O)N[C@H]1C(=O)N[C@@H](CC(N)=O)C(=O)N[C@H]2C(=O)N[C@H]3C(=O)N[C@H](C(=O)N[C@H](C(=O)O)c4cc(O)cc(O)c4-c4cc3ccc4O)[C@H](O)c3ccc(c(Cl)c3)Oc3cc2cc(c3O[C@@H]2O[C@H](CO)[C@@H](O)[C@H](O)[C@H]2O[C@H]2C[C@](C)(N)[C@H](O)[C@H](C)O2)Oc2ccc(cc2Cl)[C@H]1O [Vancomycin]	–	–	Allowed	MIC (L. lactis CAB701 strain; Lactococcus lactis, CAB701STRAIN, 72 h): 0.38 µg/mL (≈ 0.262 µM)
CC1(C)S[C@@H]2[C@H](NC(=O)[C@H](N)c3ccccc3)C(=O)N2[C@H]1C(=O)O [Ampicillin]	Allowed	0.094 µg/mL (≈ 0.269 µM)	–	–
CC[C@H]1OC(=O)[C@H](C)[C@@H](O[C@H]2C[C@@](C)(OC)[C@@H](O)[C@H](C)O2)[C@H](C)[C@@H](O[C@@H]2O[C@H](C)C[C@H](N(C)C)[C@H]2O)[C@](C)(O)C[C@@H](C)C(=O)[C@H](C)[C@@H](O)[C@]1(C)O [Erythromycin]	Allowed	–	–	–
CN(C)[C@@H]1C(O)=C(C(N)=O)C(=O)[C@@]2(O)C(O)=C3C(=O)c4c(O)cccc4[C@@](C)(O)[C@H]3C[C@@H]12 [Tetracycline]	–	0.094 µg/mL (≈ 0.212 µM)	Allowed	–
O=C(N[C@H](CO)[C@H](O)c1ccc([N+](=O)[O-])cc1)C(Cl)Cl [Chloramphenicol]	Allowed	1.5 µg/mL (≈ 4.64 µM)	–	–
Gentamicin	–	–	Allowed	minimum inhibitory concentration (MIC) (L. lactis CAB701 strain; E-test): 3 µg/mL; MIC (L. lactis CAB701 strain; E-test, MRS agar, 37° C., 72 hours): 3 µg/mL
CCCCCCCCCCC[C@@H](C[C@@H]1OC(=O)[C@H]1CCCCCC)OC(=O)[C@H](CC(C)C)NC=O [orlistat]	–	–	–	inhibition at 1000 µg/mL (stock) [1]: 28.6 ± 6.2%
[H]/N=C(/N)N[C@H]1[C@H](O)[C@@H](O)[C@H](O[C@@H]2O[C@@H](C)[C@](O)(C=O)[C@H]2O[C@@H]2O[C@@H](CO)[C@H](O)[C@@H](O)[C@@H]2NC)[C@@H](N/C(N)=N\[H])[C@@H]1O [Streptomycin]	Allowed	16 µg/mL (≈ 27.5 µM)	–	–
